Results taken from publication PMC6332427, “Drug Discovery of Host CLK1 Inhibitors for Influenza Treatment” (Molecules, 2015).
In brackets after ≈: the same amount, converted by molar mass. Several values for one entry are separate records, joined by “and”; a condition that tells them apart may be missing. Equal values may be shown once. Read-outs that look alike come from different tables or passages of the source.

How the values were obtained:
recombinant human CLK1 = target: T1, recombinant human CLK1 (Homo sapiens, UniProt P49759); assay: CLK1 inhibitory assay (Kinase-Glo luminescent kinase assay, MBP substrate); format: biochemical
T1 construct: The primer of human full length CLK1 gene was as follows; made in house; host or cells: Sf9 insect cells (baculovirus, pFastBac1)
T1 sequence (P49759 whole entry): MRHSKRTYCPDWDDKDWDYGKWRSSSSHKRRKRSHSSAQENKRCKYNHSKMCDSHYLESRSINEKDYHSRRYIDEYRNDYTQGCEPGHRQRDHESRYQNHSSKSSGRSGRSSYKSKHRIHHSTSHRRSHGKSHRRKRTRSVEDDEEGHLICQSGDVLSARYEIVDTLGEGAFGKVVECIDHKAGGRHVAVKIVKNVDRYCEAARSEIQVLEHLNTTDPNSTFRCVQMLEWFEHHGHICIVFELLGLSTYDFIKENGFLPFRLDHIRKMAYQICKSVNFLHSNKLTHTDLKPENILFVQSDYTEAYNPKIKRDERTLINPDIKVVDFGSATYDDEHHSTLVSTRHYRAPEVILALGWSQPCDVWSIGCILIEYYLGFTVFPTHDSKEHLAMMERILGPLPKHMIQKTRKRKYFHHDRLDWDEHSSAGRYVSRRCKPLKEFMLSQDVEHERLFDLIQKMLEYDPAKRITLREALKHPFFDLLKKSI
Experimental: The optimal conditions were dependent on the largest change in luminescence when comparing kinase reaction wells with control wells.
The kinase assay in this study utilized appropriate concentration of recombinant purified protein CLK1 in the presence of MBP as the substrate, MgCl2, MnCl2, ATP in kinase buffer (10 mM Tris, 1 mM EGTA, 100 μM sodium orthovanadate, 10 μM p-nitrophenyl phosphate (PNP), pH7.4) in a reaction volume of 20 μL. The reaction system were incubated at 25 °C for appropriate time. The Kinase-Glo® Luminescent Kinase Assay Platform was used to measure kinase activity by quantitating the amount of ATP, the signals of which were recorded using PerkinElmer’s EnSpire Multilabel Plate Reader. All the above components were added to the plate by automatic dispenser (EDR-384S, BioTec, Tokyo, Japan). A series of parameters containing the amount of kinase (1.16–298 ng/mL), MBP (3.125–150 μg/mL), ATP (0.1–100 μM), Mg^2+ (0.01–100 mM), Mn^2+ (0.5–20 mM), the percentage of DMSO (0.03%–10%), reaction time and temperature were optimized respectively in order to get best performance. Z′ factor values was calculated as described.
The inhibition percentage of the compounds against CLK1 were calculated according to the formula: (1) inhibition%=[(RLUsample−RLUpositive)/(RLUnegative−RLUpositive)]×100% where the RLUsample, RLUpositive, RLUnegative are the measured RLU values with treatment of test compounds, the wells free of test compounds, and that of without kinase, respectively.

[1] = system: influenza virus A/PR/8/34 (H1N1); assay: organism not typed; settings: MDCK
[2] = Cytotoxicity assay in MDCK cells (MTT, 72 h); settings: dog
MDCK cells [3] = assay: Cytotoxicity assay in MDCK cells (MTT, 72 h); settings: MDCK cells, 72 h, MTT; more than 90% cells viable
[4] = system: influenza virus A/PR/8/34 (H1N1); assay: in vitro; settings: for selectivity ratio at 24 h: MDCK, H1N1
MDCK cells [5] = settings: dog, 72 h
in vitro = settings: dog
[6] = system: influenza virus A/PR/8/34 (H1N1); assay: microbe, parasite or virus in culture; settings: read-out: EC50s in time-of-addition assays
[7] = 24 h, read-out: Simultaneous Treatment Assay EC50
[8] = read-out: Post-Treatment Assay EC50
[9] = read-out: Pre-Treatment Assay EC50
[10] = Kinase-Glo assay, read-out: IC50 (converted)
[11] = Post-Treatment Assay SI (selective index, CC50/EC50), post-treatment
[12] = Pre-Treatment Assay SI (selective index, CC50/EC50), pre-treatment
[13] = Simultaneous Treatment Assay SI (selective index, CC50/EC50), simultaneous treatment

Structure (SMILES)	IC50 (recombinant human CLK1; IC50, Kinase-Glo assay)	EC50 [1, 7]	EC50 [1, 8]	EC50 [1, 9]	CC50 at 72 h [2]	CC0 (maximal non-cytotoxic concentration) (MDCK cells [3])	IC50 (recombinant human CLK1; Figure 6, Kinase-Glo assay, read-out: IC50 (converted))	IC50 (recombinant human CLK1; [10])	selectivity ratio ([4]; Post-Treatment Assay SI (selective index, CC50/EC50))	selectivity ratio ([4]; Pre-Treatment Assay SI (selective index, CC50/EC50))	selectivity ratio ([4]; Simultaneous Treatment Assay SI (selective index, CC50/EC50))	CC50 at 72 h ([2]; MDCK cells)	CC0 (maximal non-cytotoxic concentration) (MDCK cells [5])	CC50 at 72 h (in vitro)	selectivity ratio at 24 h [4, 11]	selectivity ratio at 24 h [4, 12]	selectivity ratio at 24 h [4, 13]	EC50 ([6]; unidentified influenza virus, H1N1|PR/8, MDCK)	EC50 ([6]; MDCK)	concentration above which toxic effects occur (MDCK cells [5])
O=c1c(-c2ccc(O)cc2)coc2cc(O)cc(O)c12 [Genistein]	< 185 µM	> 30 µg/mL	> 30 µg/mL	> 30 µg/mL	75.6 µg/mL (≈ 280 µM)	30 µg/mL	–	–	–	–	–	–	–	–	–	–	–	–	–	–
O=c1c(O)c(-c2ccc(O)cc2)oc2cc(O)cc(O)c12 [J10610, Kaempferol]	–	12.3 ± 5.89 µg/mL (≈ 43.1 µM)	23.3 ± 1.08 µg/mL (≈ 81.4 µM)	5.16 ± 2.4 µg/mL (≈ 18 µM)	–	30 µg/mL	6.01 µM	< 175 µM	2.94	13.3	5.55	68.5 µg/mL (≈ 239 µM)	–	–	–	–	–	–	–	–
O=C(Oc1cc(O)c2c(c1)O[C@H](c1cc(O)c(O)c(O)c1)[C@@H](O)C2)c1cc(O)c(O)c(O)c1 [J10688, Clypearin]	–	1.2 ± 0.28 µg/mL (≈ 2.62 µM)	18.1 ± 3.02 µg/mL (≈ 39.4 µM)	0.75 ± 0.13 µg/mL (≈ 1.64 µM)	–	–	–	< 109 µM and 2.62 µM	–	–	–	–	100 µg/mL	> 200 µg/mL	> 11.1	> 267	> 167	< 20 µg/mL	–	–
C/C=C/C(=O)c1c(O)c2c(c3c(-c4ccccc4)cc(=O)oc13)OC(C)(C)C=C2 [J10857]	–	16.3 ± 2.29 µg/mL (≈ 41.9 µM)	14.7 ± 5.25 µg/mL (≈ 37.8 µM)	18.4 ± 13 µg/mL (≈ 47.4 µM)	–	–	–	< 129 µM	–	–	–	–	30 µg/mL	77.7 µg/mL (≈ 200 µM)	5.3	4.22	4.78	–	–	–
Cc1c([N+](=O)[O-])c(O)c([N+](=O)[O-])c2oc(=O)c(C(=O)Nc3cccc(C(=O)O)c3)cc12 [J11534]	< 116 µM	> 30 µg/mL	> 30 µg/mL	> 30 µg/mL	175 µg/mL (≈ 408 µM)	30 µg/mL	–	–	–	–	–	–	–	–	–	–	–	–	–	–
O=C(O[C@@H]1O[C@@H]2COC(=O)c3cc(O)c(O)c(O)c3-c3c(cc(O)c(O)c3O)C(=O)O[C@H]([C@H]1O)[C@@H]2O)c1cc(O)c(O)c(O)c1 [J12098, Corilagin]	< 78.8 µM and 0.599 µM	2 ± 2.22 µg/mL (≈ 3.15 µM)	5.91 ± 1.44 µg/mL (≈ 9.32 µM)	3.99 ± 3.72 µg/mL (≈ 6.29 µM)	–	–	–	–	–	–	–	–	30 µg/mL	154 µg/mL (≈ 242 µM)	26	38.5	76.8	–	< 20 µg/mL	–
O=C(O[C@@H]1Cc2c(O)cc(O)cc2O[C@@H]1c1cc(O)c(O)c(O)c1)c1cc(O)c(O)c(O)c1 [J14080, Epigallocatechin gallate]	< 109 µM	14.9 ± 1.81 µg/mL (≈ 32.4 µM)	> 30 µg/mL	10.2 ± 6.22 µg/mL (≈ 22.2 µM)	71.1 µg/mL (≈ 155 µM)	30 µg/mL	–	–	–	–	–	–	–	–	–	–	–	–	–	–
COc1cc(/C=C/c2cc(O)cc(O)c2)ccc1O [J14528, Isorhapontigenin]	< 194 µM	> 30 µg/mL	> 30 µg/mL	5.98 ± 2.3 µg/mL (≈ 23.2 µM)	–	–	–	–	–	–	–	–	30 µg/mL	83.4 µg/mL (≈ 323 µM)	–	13.9	–	–	–	–
Oc1cc(O)cc(/C=C/c2ccccc2)c1 [J14848, Pinosylvin]	< 236 µM and 395 µM	5.28 ± 2.45 µg/mL (≈ 24.9 µM)	6.65 ± 4.3 µg/mL (≈ 31.3 µM)	7.54 ± 5.48 µg/mL (≈ 35.5 µM)	–	–	–	–	–	–	–	–	10 µg/mL	18.3 µg/mL (≈ 86 µM)	3.23	2.42	3.46	–	–	above 10 μg/mL
